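Dose response: 5 concentrations. Exposure: 48 h. Format: 96-well plates. Endpoint: linear interpolation; highest concentration if not reached. GI50 = concentration required for 50% inhibition of growth.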 Activity calls are given as the source filed them. Cut-off read from the data, not from the text of the source: active = GI50 up to about 1.1 µM and inactive = higher.
Columns and labels:
Experiment in all cases: NCI-60 cell line screen, 48 h
[1] = system: HOP-92
[2] = system: SK-MEL-5
[3] = system: 786-0
[4] = system: HOP-62
[5] = system: HCT-15
[6] = system: K562
[7] = system: CCRF-CEM
[8] = system: OVCAR-4
[9] = system: Malme-3M
[10] = system: COLO 205
[11] = system: SF-539
[12] = system: SNB-75
[13] = system: UACC-257
[14] = system: NCI-H23
[15] = system: SW-620

SMILES | GI50 [1] | GI50 [2] | GI50 [3] | GI50 [4] | GI50 [5] [µM] | GI50 [6] | GI50 [7] | GI50 [8] | GI50 [9] | GI50 [10] | GI50 [11] | GI50 [12] | GI50 [13] | GI50 [14] | GI50 [15]
COc1ccc(N2C(=O)C3c4[nH]c5ccccc5c4C4CC(C)(C)CC(C)(C)C4C3C2=O)cc1 (stereo not given) | 11.9 µM (inactive) | 19.4 µM (inactive) | 12.9 µM (inactive) | 16.7 µM (inactive) | 30.2 | 44.5 µM (inactive) | 69.7 µM (inactive) | 10.2 µM (inactive) | 16.4 µM (inactive) | 8.81 µM (inactive) | 12.6 µM (inactive) | 16.8 µM (inactive) | 19.4 µM (inactive) | 13.8 µM (inactive) | 20 µM (inactive)
COC(=O)C(Br)C1CCc2ccccc21 (stereo not given) | > 100 µM (inactive) | > 100 µM (inactive) | > 100 µM (inactive) | > 100 µM (inactive) | > 100 | 52.7 µM (inactive) | 48.1 µM (inactive) | 53.2 µM (inactive) | > 100 µM (inactive) | > 100 µM (inactive) |  |  | > 100 µM (inactive) | > 100 µM (inactive) | > 100 µM (inactive)
Cc1nnc2c3nnc(C)n3c3ccccc3n12 | > 100 µM (inactive) | > 100 µM (inactive) | > 100 µM (inactive) | > 100 µM (inactive) | > 100 | > 100 µM (inactive) | > 100 µM (inactive) | > 100 µM (inactive) | > 100 µM (inactive) | > 100 µM (inactive) | > 100 µM (inactive) | > 100 µM (inactive) | > 100 µM (inactive) | > 100 µM (inactive) | > 100 µM (inactive)
CCCCCCCCCCCCCC(=O)NCO | > 100 µM (inactive) | > 100 µM (inactive) | > 100 µM (inactive) | > 100 µM (inactive) | > 100 |  | > 100 µM (inactive) | > 100 µM (inactive) | > 100 µM (inactive) | > 100 µM (inactive) | > 100 µM (inactive) | > 100 µM (inactive) | > 100 µM (inactive) | > 100 µM (inactive) | > 100 µM (inactive)
CCCP1(=O)C=C(C)C(=C(Cl)Cl)C(C)=C1 (stereo not given) | 24.2 µM (inactive) | 24.1 µM (inactive) | 44.5 µM (inactive) | 49.3 µM (inactive) | 30.7 | 30.8 µM (inactive) | 39.5 µM (inactive) | > 100 µM (inactive) | 25.7 µM (inactive) | 36.1 µM (inactive) | 37.3 µM (inactive) |  | 64.4 µM (inactive) | 34.7 µM (inactive) | 32.1 µM (inactive)
CC/C=C\C/C=C\C1CC(=O)NCCCNCCCCN1 (stereo not given) | > 100 µM (inactive) | > 100 µM (inactive) | > 100 µM (inactive) | > 100 µM (inactive) |  |  |  | > 100 µM (inactive) | 15.6 µM (inactive) | > 100 µM (inactive) | > 100 µM (inactive) | > 100 µM (inactive) | > 100 µM (inactive) | > 100 µM (inactive) | > 100 µM (inactive)
Brc1ccc(C[P+]2(c3ccccc3)CCCCC2)cc1.[O-][Cl+3]([O-])([O-])[O-] |  | 17.5 µM (inactive) | > 100 µM (inactive) | > 100 µM (inactive) | > 100 | 77.4 µM (inactive) | 82 µM (inactive) |  | 58.5 µM (inactive) | 20.5 µM (inactive) | 82.4 µM (inactive) | 26.2 µM (inactive) | 23.9 µM (inactive) | 96.2 µM (inactive) | 79.1 µM (inactive)
c1cnc2c(c1)-n1cccc1C1(CCSCC1)NN2 |  | > 100 µM (inactive) | > 100 µM (inactive) | > 100 µM (inactive) | 80.2 | 89.5 µM (inactive) | > 100 µM (inactive) | > 100 µM (inactive) | > 100 µM (inactive) | > 100 µM (inactive) | > 100 µM (inactive) | 53.5 µM (inactive) | 90.2 µM (inactive) |  | > 100 µM (inactive)
O=C1/C(=C/c2ccc(Cl)cc2)COc2ccc(Br)cc21 | > 100 µM (inactive) | > 100 µM (inactive) | > 100 µM (inactive) | > 100 µM (inactive) |  | > 100 µM (inactive) | 61.1 µM (inactive) |  | > 100 µM (inactive) | > 100 µM (inactive) | > 100 µM (inactive) | > 100 µM (inactive) | > 100 µM (inactive) | > 100 µM (inactive) | > 100 µM (inactive)
CCOC(=O)/N=c1/nc(N(C)C)ss1 | > 100 µM (inactive) | > 100 µM (inactive) | > 100 µM (inactive) | > 100 µM (inactive) | > 100 | > 100 µM (inactive) | > 100 µM (inactive) | > 100 µM (inactive) | > 100 µM (inactive) |  | > 100 µM (inactive) | > 100 µM (inactive) | > 100 µM (inactive) | > 100 µM (inactive) | > 100 µM (inactive)
CCCCCCCCCCCCCC(=O)OCC(C[As](=O)(O)O)OC(=O)CCCCCCCCCCCCC (stereo not given) | 86.5 µM (inactive) | > 100 µM (inactive) | > 100 µM (inactive) | > 100 µM (inactive) | 69.3 | > 100 µM (inactive) | > 100 µM (inactive) | > 100 µM (inactive) | > 100 µM (inactive) |  | > 100 µM (inactive) | > 100 µM (inactive) | > 100 µM (inactive) | > 100 µM (inactive) | 18.6 µM (inactive)
Cc1c(Cl)ccc2c1NC(=O)C2(O)C(C(=O)c1ccccc1)c1ccccc1 (stereo not given) |  | 23.3 µM (inactive) | 32.4 µM (inactive) | > 100 µM (inactive) | 45.7 | 31.1 µM (inactive) | 14.7 µM (inactive) | 10.7 µM (inactive) | 93.3 µM (inactive) | > 100 µM (inactive) | 74.6 µM (inactive) | 46.7 µM (inactive) | 28.7 µM (inactive) | 4.98 µM (inactive) | 42.4 µM (inactive)
COc1c(C)n(CCO)ccc1=O | > 100 µM (inactive) | > 100 µM (inactive) | > 100 µM (inactive) | > 100 µM (inactive) | > 100 | > 100 µM (inactive) | > 100 µM (inactive) | > 100 µM (inactive) | > 100 µM (inactive) | > 100 µM (inactive) |  | > 100 µM (inactive) | > 100 µM (inactive) |  | > 100 µM (inactive)
C#C[C@@H](CCCC)OC(=O)N[C@H](C)c1ccccc1 | 1.83 µM (inactive) | 20.6 µM (inactive) | 59.6 µM (inactive) | > 100 µM (inactive) |  | 31.9 µM (inactive) | 25.7 µM (inactive) | 39.2 µM (inactive) |  | 2.45 µM (inactive) | 2.16 µM (inactive) | 33.3 µM (inactive) | 44.8 µM (inactive) | 1.91 µM (inactive) | 51.9 µM (inactive)
COC(=O)C1CCc2nnc(-c3cccnc3)n21 (stereo not given) |  | > 100 µM (inactive) | > 100 µM (inactive) | > 100 µM (inactive) | > 100 | > 100 µM (inactive) | > 100 µM (inactive) | > 100 µM (inactive) | > 100 µM (inactive) | > 100 µM (inactive) | > 100 µM (inactive) | > 100 µM (inactive) | > 100 µM (inactive) |  | > 100 µM (inactive)
COC(=O)CC(NC(=O)OCc1ccccc1)C(C(=O)OCc1ccccc1)C(C)(OC)OC (stereo not given) |  | 12.4 µM (inactive) | 33.3 µM (inactive) | 44.9 µM (inactive) | 32.1 | 10.6 µM (inactive) | 13 µM (inactive) | 28.6 µM (inactive) | 28 µM (inactive) | 16.9 µM (inactive) | 29.2 µM (inactive) | 16.4 µM (inactive) | 23.7 µM (inactive) | 17.4 µM (inactive) | 32.9 µM (inactive)
Cc1ccc(NC(=O)C(=O)Cc2cccc[n+]2[O-])cc1C |  | > 100 µM (inactive) | > 100 µM (inactive) | > 100 µM (inactive) | > 100 | > 100 µM (inactive) | > 100 µM (inactive) | > 100 µM (inactive) | > 100 µM (inactive) | > 100 µM (inactive) | > 100 µM (inactive) | > 100 µM (inactive) | > 100 µM (inactive) | > 100 µM (inactive) | > 100 µM (inactive)
N#CCC(=O)Nc1cccc(C(F)(F)F)c1 |  | > 100 µM (inactive) | > 100 µM (inactive) | > 100 µM (inactive) | > 100 | > 10 µM (inactive) | > 100 µM (inactive) | > 100 µM (inactive) | > 100 µM (inactive) | > 100 µM (inactive) | > 100 µM (inactive) | > 100 µM (inactive) | > 100 µM (inactive) | > 100 µM (inactive) | > 100 µM (inactive)
CC(=O)Nc1ccc(S(=O)(=O)N/N=C(\C)CN2C(=O)c3ccccc3C2=O)cc1 |  | > 100 µM (inactive) | > 100 µM (inactive) | > 100 µM (inactive) | > 100 | > 100 µM (inactive) | > 100 µM (inactive) | > 100 µM (inactive) | > 100 µM (inactive) | > 100 µM (inactive) | > 100 µM (inactive) | 75.5 µM (inactive) | > 100 µM (inactive) | > 100 µM (inactive) | > 100 µM (inactive)
CCOC(=O)COc1ccc(OCC(=O)OCC)c2c1C(=O)CCCC2=O | > 100 µM (inactive) | 0.26 µM (active) | > 100 µM (inactive) | > 100 µM (inactive) | > 100 | > 100 µM (inactive) | > 100 µM (inactive) |  | > 100 µM (inactive) | > 100 µM (inactive) | > 100 µM (inactive) | > 100 µM (inactive) | > 100 µM (inactive) | > 100 µM (inactive) | > 100 µM (inactive)
CC(=O)NNc1nc(C)c(C(=O)/C=C/c2ccc(/C=C/C(=O)c3sc(NNC(C)=O)nc3C)cc2)s1 |  |  | > 100 µM (inactive) | > 100 µM (inactive) | > 100 | > 100 µM (inactive) | > 100 µM (inactive) | > 100 µM (inactive) | > 100 µM (inactive) | > 100 µM (inactive) | > 100 µM (inactive) |  | > 100 µM (inactive) | > 100 µM (inactive) | > 100 µM (inactive)
